{
  "source": "patent US20240246905A1",
  "about": "(University of Leicester, priority 2021, published 2024)",
  "key": {"MRSA 252 biofilms": {"test_system": "MRSA 252 biofilms", "assay": "Biofilm prevention, crystal violet", "format": "cell-based, S. aureus", "conditions": "50 μg/mL", "experimental": "The potential of the lead compounds to both inhibit S. aureus biofilm growth and to disrupt more established biofilms was next investigated. Since previous studies had determined each compounds MIC against planktonic MRSA bacteria, it was hypothesized that a compound concentration of 50 μg/mL (at or above the MIC of all lead compounds except 2) was a reasonable concentration to begin the study.\nPrevention: 100 μL of a mixture of TSB supplemented with 0.5% glucose and antibiotic (1:1) was added to individual wells in 96-well plate. The wells were then inoculated with […] an overnight culture of bacteria and incubated at 37° C. for 24 hours. Following the pre-determined length of time, the medium in each well was discarded, washed twice with PBS before 150 μL of a 1% crystal violet solution was added and the plate was left to incubate at room temperature for a further 30 minutes. Each well was then washed a further 4× with PBS before 200 μL 7% acetic acid was added. The absorbance of each well was then measured at OD595."}, "MRSA 252 [1]": {"test_system": "MRSA 252", "assay": "Resistance testing by serial passaging", "format": "cell-based, S. aureus", "conditions": "18 serial passage cycles", "experimental": "Next a serial passage study was undertaken in order to elucidate the speed at which target bacteria might either evolve resistance or select for persister cells within that population following exposure to compound 36.\nFor resistance development by serial passaging, 5 μL of overnight cultured MRSA 252 cells were added to individual wells in a 96-well plate containing 195 μL of TSB supplemented with a range of antibiotic concentrations and incubated at 37° C. for 18 hours. Ofloxacin served as a control. Wells where bacterial growth was visible after 18 hours were plated on TSA plates and incubated at 37° C. for a further 18 hours. Single colonies obtained from the overnight cultured bacteria were then inoculated into fresh TSB medium, incubated at 37° C. for 18 hours before being used in the next cycle of the resistance testing. This process continued for 18 cycles."}, "[2]": {"test_system": "late-exponential phase MRSA 252", "assay": "Time-kill assay", "format": "cell-based, S. aureus", "experimental": "Investigations into the precise mode of action of these compounds was next studies, with time-kill assays, resistance studies, live-dead stain and morphological analysis of bacteria exposed to the compounds providing an insight into the specific mode of action. Time-kill assays were used to evaluate whether the compounds were bacteriostatic or bactericidal.\nThe mode of inhibitory action of our novel class of compounds was determined by measuring the decrease in CFU over time. […] The pellets were re-suspended in TSB with the antibiotic added at 2× and 4×MIC and incubated at 37° C. Bacterial suspensions mixed with 1 M saline served as a control. […]"}, "MRSA 252 [3]": {"test_system": "MRSA 252", "assay": "LIVE/DEAD assay (SYTO 9 / propidium iodide)", "format": "cell-based, S. aureus", "conditions": "4×MIC", "experimental": "To attempt to further confirm whether the membrane was indeed targeted by compound 41, a LIVE/DEAD assay was performed, in which MRSA 252 was inoculated with two dyes: SYTO 9 and propidium iodide (PI). Cells with compromised membranes will stain fluorescent red whilst those cells with intact membranes will stain fluorescent green. […] Contrary to this, cells with no antibiotic present stained fluorescent green (FIG. 7).\nThe LIVE/DEAD BacLight™ bacterial viability kit was purchased from Thermo Fischer Scientific and the assay was performed per manufactures instructions. The kit provides two nucleic acid stains; SYTO-9 and propidium iodide (PI), which allows live bacteria with intact membranes to be distinguished from bacteria with compromised membranes. Single colonies of MRSA 252 were added to individual wells containing Melinex® films and 3 mL TSB and incubated at 37° C. for 18 hours with minimal agitation (70 rpm). The growth media was then exposed to the antibiotics at various concentrations and incubated for 10 hours. The medium was then discarded in each well, washed with PBS before 200 μL of a solution containing both nucleic acid stains was added (50 μL of each component in 10 mL PBS) and left to incubate in the dark for 15 minutes at room temperature. […]"}, "S. aureus SH1000 cells": {"test_system": "S. aureus SH1000 cells", "assay": "Potassium leakage detection", "format": "cell-based", "conditions": "60 minutes, MRSA cells", "experimental": "The potassium leakage of S. aureus SH1000 cells exposed to compounds was conducted as per previously published methods. Briefly, compounds were incubated with mid-exponential-phase S. aureus SH1000 cells in HEPES buffer (˜10^8 CFU/ml) for 60 minutes. Cells were then removed by centrifugation, and the supernatant was assayed for K^+ efflux by using a Perkin-Elmer 11001B atomic absorption instrument in flame emission mode (wavelength, 766.5 nm; slit, 0.7 nm high; air-acetylene flame). Prior to measurements, the instrument was calibrated using analytical grade potassium standards."}, "E. coli strain DH5a": {"test_system": "E. coli strain DH5a", "assay": "MIC with and without outer membrane permeabilisation", "format": "cell-based", "conditions": "Escherichia coli", "experimental": "Antibiotic MIC's were determined by a broth micro-dilution method according to Clinical Standard Laboratory Institute (CSLI) Guidelines (2017). Briefly, 96-well microplates, each containing 195 μL of the 1:2 dilution antibiotic in TSB, were inoculated with 5 μL of overnight cultured bacteria, diluted to give a starting bacterial concentration of 5×10^5 CFU/mL. The optical density of each well inoculated was recorded every 12 minutes over an 18 hour period at 37° C. The data from this was plotted in OriginPro8 (OriginLab) and sigmoidal curves fitted using the dose response function. Fitted values for each curve were used to calculate the MIC."}, "Galleria mellonella": {"test_system": "Galleria mellonella", "assay": "Systemic toxicity, Galleria mellonella survival", "conditions": "n = 10, injection of 500 μg/mL", "experimental": "Galleria mellonella wax worms purchased from www.livefoods.co.uk were inoculated with 10 μL of a series of dilutions of the antibiotics synthesised in-house. The antibiotic concentrations chosen for this study were the following: 1000 μg/mL, 500 μg/mL, 250 μg/mL, 125 μg/mL and 31.25 μg/mL. Each dilution was injected into 10 individual wax worms through their last pro-leg. The injected wax worms were stored at 25° C. for 5 days. The cytotoxicity was determined as the percentage survival rate of Galleria mellonella Wax worms after 5 days inoculation."}},
  "data": [
    {"compound": "[C-]#[N+]C=Cc1ccc(O)cc1", "note": "[Compound 2, 4-(2-Isocyanovinyl)phenol]", "values": [
      {"measurement": "prevention of MRSA 252 biofilm growth", "setting": "MRSA 252 biofilms", "value": "entirely prevented biofilm formation"}
    ]},
    {"compound": "[C-]#[N+]/C=C/c1ccc(O)cc1/C=C/c1ccccc1", "note": "[Compound 36, 4-((E Z)-2-Isocyanovinyl)-3-((E)-styryl)phenol]", "values": [
      {"measurement": "change of MIC after serial passage (in words)", "setting": "MRSA 252 [1]", "value": "no increase in the MIC"}
    ]},
    {"compound": "[C-]#[N+]/C=C/c1ccc(NC(C)=O)cc1/C=C/c1ccccc1", "note": "[Compound 41, N-(4-((E)-2-Isocyanovinyl)-3-((E)-styryl)phenyl)acetamide]", "values": [
      {"measurement": "reduction in bacterial density", "setting": "[2]; 20 hours exposure, 2×MIC, MRSA 252 in TSB", "value": 4, "unit": "log"},
      {"measurement": "bacteriostatic or bactericidal", "setting": "[2]; late-exponential phase MRSA 252", "value": "bactericidal activity"},
      {"measurement": "membrane integrity (LIVE/DEAD stain)", "setting": "MRSA 252 [3]", "value": "significant membrane damage"},
      {"measurement": "dissipation of cellular K+ ions", "setting": "S. aureus SH1000 cells", "value": 50, "unit": "%"},
      {"measurement": "MIC", "setting": "E. coli strain DH5a; not permeabilised", "value": 280, "unit": "µg/mL"},
      {"measurement": "MIC", "setting": "E. coli strain DH5a; outer membrane permeabilised with polymixin B nanopeptides", "value": 16, "unit": "µg/mL"}
    ]},
    {"compound": "(2-Isocyanovinyl)-4-acetaamido benzene [Compound 22]", "values": [
      {"measurement": "% survival after 5 days", "setting": "Galleria mellonella", "value": 70, "unit": "%"}
    ]}
  ]
}
